Results published in the METLIN SMRT retention time set (Domingo-Almenara et al. 2019).

Assay: gradient 5% acetonitrile 3 min, to 50% in 2 min, to 85% in 15 min, held 3 min, 100 µL/min
Settings: column: Zorbax Extend-C18 2.1 x 50 mm; eluents: water / acetonitrile, 0.1% formic acid
How it was run: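 Data were gathered over 3 months by HPLC coupled to a quadrupole time-of-flight mass spectrometer, operated in positive and negative ionization mode. Mixtures of ~100 pure standards ran on a Zorbax Extend-C18 column (2.1 × 50 mm, 1.8 μm) at 100 μL/min, with water and acetonitrile each containing 0.1% formic acid and dead and dwell volumes of 40 μL and 900 μL. Retention time was read from adduct peaks picked by computer and checked manually.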

In the case of CC(=O)N1CCc2cc(N3CC(C(=O)Nc4cc(C)ccc4C)CC3=O)ccc21 (stereo not given), the RP-LC retention time is reported as 717 s.

For CNC(=O)c1ccc(-c2nc3cc(NS(=O)(=O)c4cc(F)ccc4C)ccc3n2C)cc1, the RP-LC retention time was 832 s.

COc1ccc(NC(=O)N2CC(N(C(=O)NC(C)C)C3CCOCC3)C2)cc1OC gave an RP-LC retention time of 598 s.

Cc1ccc(CNC(=O)C2CCCN(C(=O)Cc3cccc4ccccc34)C2)o1 (stereo not given) gave an RP-LC retention time of 806 s.

FC1(F)CN[C@H](c2nc(-c3ccncc3)no2)C1 showed an RP-LC retention time of 614 s.

COc1ccc(NC(=O)NCC23CCCC=C2N(C)C(=O)CC3)cc1 (stereo not given) showed an RP-LC retention time of 740 s.

C=CCNS(=O)(=O)CCNC(=O)c1ccccc1 showed an RP-LC retention time of 629 s.

For CC1CCC(NC(=O)Cc2csc3nc(-c4ccccc4)cn23)CC1 (stereo not given), the RP-LC retention time was 843 s.

For Cc1[nH]c(C(=O)N2CCCC(C(=O)NC3CCCCC3)C2)c(C)c1C(=O)OC(C)C (stereo not given), the RP-LC retention time was 861 s.

Work on Cc1nc(NCCNC(=O)c2ccc(Br)o2)cc(-n2cccn2)n1 yielded an RP-LC retention time of 673 s.

Compound Cc1cccc(NC(=O)NC2CCN(c3ccc(F)cc3)C2=O)c1 (stereo not given) has an RP-LC retention time of 830 s.

In the case of O=C(NCCc1ccccc1)N1CCC(n2c(-c3ccoc3)nc3cccnc32)C1 (stereo not given), the RP-LC retention time is reported as 725 s.

With COc1ccc(NC(=O)N2CCC(c3nc(C(=O)N4CCOCC4)c(C)o3)CC2)cc1 the RP-LC retention time was 660 s.

For O=C(C1CCCC1)N1CCN(Cc2nnnn2-c2ccccc2)CC1, the RP-LC retention time was 712 s.

COC(=O)c1cc2c(=O)n(-c3nc(-c4ccccc4)cs3)ccc2nc1C gave an RP-LC retention time of 1250 s.

Compound Cc1ccc(F)cc1NS(=O)(=O)c1cc2c(s1)CCN(C(=O)C1CC1)C2 has an RP-LC retention time of 839 s.

For CN(C)C(=O)C1CCN(c2nc3ccc(-c4ccccc4)nc3s2)CC1, the RP-LC retention time was 888 s.

With CC(C)Cc1nc(N2CCNCC2)c(C#N)c2c1COC(C)(C)C2 the RP-LC retention time was 683 s.

Work on O=C(c1nc(-c2cccs2)cs1)N1CCN(c2ccccc2)CC1 yielded an RP-LC retention time of 1130 s.

Compound CCOC(=O)c1cccc(NC(=O)c2c(OCC)cc(=O)n3c2CCCC3)c1 has an RP-LC retention time of 772 s.

Compound CCN1CCN(Cc2ccc(C(=O)NCc3cc(F)cc(F)c3)cc2)C(=O)C1=O has an RP-LC retention time of 682 s.

In the case of COc1cccc(-c2noc(NC3CC3)n2)c1, the RP-LC retention time is reported as 787 s.

Work on CCCNC(=O)C1CCCN(c2nc3ncn(CC(=O)Nc4ccc(C)c(C)c4)c(=O)c3s2)C1 (stereo not given) yielded an RP-LC retention time of 715 s.

COCCN(CC(=O)N1CCc2sccc2C1COc1ccccc1)C(=O)COC (stereo not given) showed an RP-LC retention time of 787 s.

In the case of COc1cccc(-c2noc(-c3cc(N4CCN(c5ccccn5)CC4)nc4ccccc34)n2)c1OC, the RP-LC retention time is reported as 841 s.

In the case of COc1nccnc1N1CCC(N(C)C(=O)c2ccc3c(c2)OCO3)C1 (stereo not given), the RP-LC retention time is reported as 694 s.

In the case of COc1cc(-c2noc(CN3C(=O)COc4cc(Cl)ccc43)n2)cc(OC)c1OC, the RP-LC retention time is reported as 1020 s.

CCOC(=O)c1cccc(NC(=O)c2cnc(-c3ccc(C)cc3)nc2-c2ccncc2)c1 showed an RP-LC retention time of 1050 s.

For O=C(NCc1ccco1)Nc1ccc2c(c1)N(C(=O)c1ccccc1)CC2, the RP-LC retention time was 756 s.

With CCOC(=O)CCNC(=O)N1c2ccccc2CC1c1nc(C(C)C)no1 (stereo not given) the RP-LC retention time was 609 s.

In the case of Cc1ccc(C(=O)N2CCC3(CC2)N(C)C(=O)CS3(=O)=O)s1, the RP-LC retention time is reported as 614 s.

With CCN1C(=O)c2cccnc2Sc2cc(NC(=O)CCOC)ccc21 the RP-LC retention time was 645 s.

Work on COC(=O)CCc1c(C)nc2c(c(-c3cccs3)nn2C2CCS(=O)(=O)C2)c1C (stereo not given) yielded an RP-LC retention time of 850 s.

Compound CC1(C(=O)NC2CCCCCCC2)CN(S(C)(=O)=O)CC(=O)N1c1ccc(F)cc1 (stereo not given) has an RP-LC retention time of 884 s.

O=C(O)c1cnc(N2CCSCC2)nc1-c1cccc(Cl)c1 showed an RP-LC retention time of 964 s.

Work on CCOCCCNC(=O)c1cc2sccc2n1Cc1ccc(Cl)cc1 yielded an RP-LC retention time of 1040 s.

Cc1ccc(N2CCN(CC(O)c3ccc4c(c3)OCO4)CC2)cc1 (stereo not given) gave an RP-LC retention time of 665 s.

In the case of COc1cc(C(=O)N2CCCC2c2nc(-c3ccccc3)no2)cc(OC)c1OC (stereo not given), the RP-LC retention time is reported as 910 s.

With CN1CCN(Cc2nc(-c3ccc(N(C)Cc4ccccc4)nc3)no2)CC1 the RP-LC retention time was 638 s.

COc1cccc(-c2ccc(=O)n(CCc3nc(-c4ccc(C)cc4)no3)n2)c1 gave an RP-LC retention time of 999 s.

With COc1ccc(OC)c(NC(=O)CN2C(=O)CC(c3ccccc3)=Nc3ccccc32)c1 the RP-LC retention time was 982 s.

Work on COC(=O)C(C)Sc1ncnc2sc(C)c(C)c12 (stereo not given) yielded an RP-LC retention time of 955 s.

Cc1noc(C)c1S(=O)(=O)N1CCC(Cc2nncn2-c2ccccc2)CC1 gave an RP-LC retention time of 780 s.

O=C([C@@H]1C[C@H](Oc2ccccc2)CN1C(=O)C1CCC1)N1CCCC1 gave an RP-LC retention time of 750 s.

CCCCOC(=O)c1ccc(Nc2ncnc(N)c2[N+](=O)[O-])cc1 gave an RP-LC retention time of 930 s.

O=C(Cn1c(=O)oc2ccccc21)N1CCN(C(=O)C2CC2c2cccs2)CC1 (stereo not given) showed an RP-LC retention time of 738 s.

In the case of CNC(=O)[C@@H]1CN(C(=O)c2cc(C)no2)C[C@H]1COC, the RP-LC retention time is reported as 558 s.

Compound Cc1nnc2n1CCC(NC(=O)c1cscn1)CC2 (stereo not given) has an RP-LC retention time of 542 s.

In the case of Cc1cccc(N2CCN(C(=O)c3cn(-c4ccc(NC(=O)C5CC5)cn4)cn3)CC2)c1C, the RP-LC retention time is reported as 901 s.

In the case of Cc1ccc(NC(=O)NCC(c2cccnc2)c2c[nH]c3ccccc23)c(C)c1 (stereo not given), the RP-LC retention time is reported as 683 s.

For COc1ccc(C2Cn3nnc(-c4nc(C(C)C)no4)c3CO2)cc1 (stereo not given), the RP-LC retention time was 936 s.

With CCc1nc(OCC(=O)NCc2ccccc2Cl)c2c(C)c(C)oc2n1 the RP-LC retention time was 1020 s.

CCCNS(=O)(=O)c1cc2c(cc1C)CCN2C(C)=O showed an RP-LC retention time of 641 s.

In the case of CCOC(=O)c1sc(NC(=O)COc2ccccc2Br)nc1C, the RP-LC retention time is reported as 1050 s.

Work on Cc1[nH]nc(-c2c(C)sc(C)c2S(=O)(=O)Nc2ccc(Cl)cc2)c1C yielded an RP-LC retention time of 1060 s.

Compound COc1ccc(OC)c(-c2cn3ccn(-c4cccc(Cl)c4)c(=O)c3n2)c1 has an RP-LC retention time of 887 s.

For O=C(Cn1ccn2nc(-c3ccccc3)c(CO)c2c1=O)Nc1cccc(Br)c1, the RP-LC retention time was 868 s.

For COc1cc(CNC(=O)C2CCCN(c3cc(=O)n(C)c(=O)n3C)C2)cc(OC)c1OC (stereo not given), the RP-LC retention time was 636 s.

With CC(C)C1c2nccn2CCCN1C(=O)c1ccc2c(c1)OCO2 (stereo not given) the RP-LC retention time was 603 s.

With CCOC(=O)CNC(=O)N1CCN(Cc2nc3cccnc3n2-c2ccc(CC)cc2)CC1 the RP-LC retention time was 654 s.

Compound O=C(COc1ccc(Cl)cc1)Nc1nc2ccc([N+](=O)[O-])cc2s1 has an RP-LC retention time of 974 s.

In the case of O=C(NCc1cccc(Cl)c1)c1c(O)c2cccnc2[nH]c1=O, the RP-LC retention time is reported as 954 s.

With COc1ccccc1C(=O)NC1CCN(c2ccc(C)cc2)C1=O (stereo not given) the RP-LC retention time was 870 s.

COc1ccc2[nH]cc(CCNC(=O)C(C)C3CCN(S(=O)(=O)c4c(C)noc4C)CC3)c2c1 (stereo not given) showed an RP-LC retention time of 831 s.

Cc1ccc(Cn2cccc2C(=O)C(=O)NCc2ccco2)cc1C gave an RP-LC retention time of 1070 s.

In the case of O=C(c1ccc(-c2cccs2)nc1)N1CCN(C2CCCCC2)CC1, the RP-LC retention time is reported as 711 s.

In the case of CCn1cc(CN2CCn3c(nnc3[C@@H]3C[C@@H](O)CN3Cc3cccnc3)C2)c(C)n1, the RP-LC retention time is reported as 513 s.

CC(C)CC(=O)Nc1ccc(-n2cnc(C(=O)NC3CCCCCC3)c2)nc1 gave an RP-LC retention time of 865 s.

Compound CCCN(CCC)S(=O)(=O)c1cccc(-c2cn3ccc(C)cc3n2)c1 has an RP-LC retention time of 744 s.

Work on O=C(NC1CCN(c2cc(-c3cccs3)[nH]n2)C1)c1cc(F)ccc1Cl (stereo not given) yielded an RP-LC retention time of 797 s.

Compound CSc1cccc2sc(NC(=O)C3CCN(S(C)(=O)=O)CC3)nc12 has an RP-LC retention time of 779 s.

Compound CCOc1ccccc1CNC1CCN(c2ccc(C(=O)NC3CC3)cn2)C1 (stereo not given) has an RP-LC retention time of 579 s.

With Cc1cc(C)n(CC(=O)N2CCC(c3nc(-c4ccncc4)no3)C2)n1 (stereo not given) the RP-LC retention time was 839 s.

COc1ccc(-c2cn3c(CC(=O)N4CCN(c5cccc(Cl)c5)CC4)csc3n2)cc1OC showed an RP-LC retention time of 835 s.

Cn1c(CC2CCN(C(=O)COc3cccc(Cl)c3)C2)nc2cccnc21 (stereo not given) showed an RP-LC retention time of 608 s.

Compound COc1cc(-c2nnc(-c3ccc(C)c(S(=O)(=O)N4CCCC4)c3)o2)cc(OC)c1OC has an RP-LC retention time of 986 s.

With Cn1ncc2c(Nc3ccccc3Cl)nc(Cl)nc21 the RP-LC retention time was 891 s.

With Cc1noc(-c2cccc(OC3CN(C(=O)Nc4cccc(F)c4)C3)c2)n1 the RP-LC retention time was 923 s.

In the case of Cc1ccc2[nH]cc(CCN3CC(C(=O)N4CCN(c5ccccc5)CC4)CC3=O)c2c1 (stereo not given), the RP-LC retention time is reported as 839 s.

In the case of CN(CCc1noc(COc2ccc(F)cc2)n1)C(=O)Nc1ccc(Br)cc1, the RP-LC retention time is reported as 980 s.

With Cc1csc(-c2cc(S(=O)(=O)Nc3ccc(Cl)cc3C)c(C)s2)n1 the RP-LC retention time was 1140 s.

For Cc1nc2ccccc2c(=O)n1Cc1noc(Cc2ccc(Br)cc2)n1, the RP-LC retention time was 917 s.

Compound O=C(NC1CC1)c1cccnc1N1CCSCC1 has an RP-LC retention time of 623 s.

In the case of COC(=O)c1cc(OCC(=O)Nc2ccc3c(c2)OCCO3)c2cc(Cl)ccc2n1, the RP-LC retention time is reported as 851 s.

CCCN(Cc1ccc(OC)cc1)Cc1cc(=O)n2cccc(C)c2n1 showed an RP-LC retention time of 644 s.

For COCCCNC(=O)Cn1c(=O)n(-c2ccc(C)cc2)c2ncccc21, the RP-LC retention time was 692 s.

Cc1cc(C)c2c(N3CCOCC3)nc(C(=O)NCC3CCCCC3)nc2n1 showed an RP-LC retention time of 678 s.

Cn1c(N2CCC(C(=O)N3CCC(Cc4ccccc4)CC3)CC2)cc(=O)n(C)c1=O showed an RP-LC retention time of 824 s.

Work on COC(=O)C(Cc1ccccc1)NC(=O)N1CCCn2nc(-c3ccncc3)cc2C1 (stereo not given) yielded an RP-LC retention time of 616 s.

O=C(NCc1ccccn1)C(=O)NCC1OCCN1C(=O)c1ccc2c(c1)OCO2 (stereo not given) showed an RP-LC retention time of 563 s.
